According to US7087021B2, “Methods of screening for genes and agents affecting cardiac function” (priority 2001, dated 2006):

System: Drosophila heart
Test: Effects of anesthesia on heart rate
Assay type: in vivo, Drosophila melanogaster
Settings: for effect of anesthesia on heart rate (in words): anesthetized Drosophila
Source text: […] The flies are removed from the vial as soon as they are immobile.
A more preferred aspect the microscope is a Nikon Diaphot-TMD inverted microscope, with Nomarski (DIC) optics (without analyzer) and a 10×(N.A. 0.25) objective. Preferably, images are obtained by closing the field diaphragm, so that the light-beam is concentrated on the first ventricle of the fly's heart, and the intensity of the light-beam is increased to the maximum. Most preferably, the flies are positioned on their backs, approximately perpendicular to the light path, and fixed in this position by mounting the spread wings on a glass slide with double-stick tape. Images of the first cardiac ventricle are recorded using a Sony DXC-101 video camera on VHS tape, or using a similar recording apparatus, and the heart rate is measured from slow-motion replays. End-diastolic and end-systolic dimensions are measured on still images at the mid-point between the two major transversal tracheal tubes passing over the first cardiac ventricle. The images can also be analyzed by appropriate image analysis software. In certain aspects of the present invention semi-automated digital image processing is used to measure heart rate and its variation directly from video signals recorded in a single fly or multiple flies. Automated detection allows parameters such as heart rate variability to be detected in a single fly. […] For each fly 2-second video sequences (60 frames each) 10 times consecutively are acquired. […] After applying a low pass filter to reduce noise in the time-space signal, heart rate is estimated by automated counting of the peaks in the signal. […] An average and a standard deviation of the repetitions in the same fly, for example (i.e. about 10 repetitions) are obtained and the coefficient of variation is calculated (Armitage P, Berry G. Statistical Methods in Medical Research. 3rd ed. Oxford: Blackwell Scientific; 1994).
CO2 the most commonly employed anesthetic for Drosophila.

| Compound | effect of anesthesia on heart rate (in words) | heart rate immediately after anesthesia (immediately after ether anesthesia, n=5) [beats per minute] | heart rate after 30–40 min when leg movements began to return (same flies after 30–40 min, n=5, p=0.001) [beats per minute] | resumption of heart beat after cessation of gas exposure (n=10) [s] | heart rate immediately after anesthesia (older flies, 48 days, n=7, first value) [beats per minute] | heart rate after recovery under the same conditions (older flies, 48 days, n=7, second value) [beats per minute] | heart rate immediately after anesthesia (young flies, 10 days, n=6, first value) [beats per minute] | heart rate after recovery under the same conditions (young flies, 10 days, n=6, second value) [beats per minute] |
| --- | --- | --- | --- | --- | --- | --- | --- | --- |
| CCOCC [Ethyl-ether] | depress heart rate | 120±19 | 248±11 | – | – | – | – | – |
| O=C=O [CO2] | cardiac arrest within a few seconds | – | – | 20 to 30 | – | – | – | – |
| CCN(CC)CC [triethylamine] | not cause significant changes in heart rate | – | – | – | 213±6 | 211±11 | 283±6 | 282±4 |
